What follows are compounds tested on HCT116 colorectal cancer cells (assay: Cisplatin sensitization assay (96 h cell viability MTS)). Details: 96 h MTS, compound plus Cisplatin.
Assay type: cell-based
Description: Compounds can be screened for their ability to sensitize HCT116 colorectal cancer cells to Cisplatin using a 96 h cell viability (MTS) assay. […] Compounds and Cisplatin are then both added simultaneously to the cell media in 2-fold serial dilutions from a top final concentration of 10 μM as a full matrix of concentrations in a final cell volume of 200 μl, and the cells are then incubated at 37° C. in 5% CO2. After 96 h, 40 μl of MTS reagent (Promega G358a) is added to each well and the cells are incubated for 1 h at 37° C. in 5% CO2.
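Note: compound concentration needed to lower the Cisplatin-alone IC50 by a set fold.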

For CN1C[C@@H]2CCN(c3ccncc3NC(=O)c3c(N)nn4cc(F)cnc34)C[C@@H]2C1=O [I-N-224, 2-amino-6-fluoro-N-(4-((3aR,7aR)-2-methyl-3-oxohexahydro-1H-pyrrolo[3,4-c]pyridin-5(6H)-yl)pyridin-3-yl)pyrazolo[1,5-a]pyrimidine-3-carboxamide], which “Cisplatin Sensitization Assay” value is on record?
Its value is “+ (Compounds with a Cisplatin sensitization value >0.2 μM but <5 μM are marked with “+.”)”.

Which “Cisplatin Sensitization Assay” value does the source give for CC1(O)CN(C(=O)C2CCN(c3c(F)cncc3NC(=O)c3c(N)nn4cc(F)cnc34)CC2)C1 [I-G-63, 2-amino-6-fluoro-N-(5-fluoro-4-(4-(3-hydroxy-3-methylazetidine-1-carbonyl)piperidin-1-yl)pyridin-3-yl)pyrazolo[1,5-a]pyrimidine-3-carboxamide] here?
The value was “+++ (Compounds with a Cisplatin sensitization value of <0.02 μM are marked with “+++.”)”.

Which “Cisplatin Sensitization Assay” value does the source give for CN1CCN2CCN(c3c(F)cncc3NC(=O)c3c(N)nn4cc(F)cnc34)CC2C1=O (stereo not shown) [I-N-240, 2-amino-6-fluoro-N-(5-fluoro-4-(8-methyl-9-oxohexahydro-1H-pyrazino[1,2-a]pyrazin-2(6H)-yl)pyridin-3-yl)pyrazolo[1,5-a]pyrimidine-3-carboxamide] here?
Its value is “++ (Compounds with a Cisplatin sensitization value >0.02 μM but <0.2 μM are marked with “++.”)”.

Which “Cisplatin Sensitization Assay” value does the source give for CN1CCCCC1C(=O)N1CCN(c2c(F)cncc2NC(=O)c2c(N)nn3cc(F)cnc23)CC1 (stereo not shown) [I-N-214, 2-amino-6-fluoro-N-(5-fluoro-4-(4-(1-methylpiperidine-2-carbonyl)piperazin-1-yl)pyridin-3-yl)pyrazolo[1,5-a]pyrimidine-3-carboxamide] here?
The value was “++ (Compounds with a Cisplatin sensitization value >0.02 μM but <0.2 μM are marked with “++.”)”.

How did the “Cisplatin Sensitization Assay” value turn out when CN(C)CCOCCOc1ccncc1NC(=O)c1c(N)nn2cc(Cl)cnc12 [I-O-47, 2-amino-6-chloro-N-(4-(2-(2-(dimethylamino)ethoxy)ethoxy)pyridin-3-yl)pyrazolo[1,5-a]pyrimidine-3-carboxamide] was run?
Its value is “+ (Compounds with a Cisplatin sensitization value >0.2 μM but <5 μM are marked with “+.”)”.

Nc1nn2cc(F)cnc2c1C(=O)Nc1cnccc1N1CCC(S(=O)(=O)N2CCN3CCC2CC3)CC1 [I-N-196, N-(4-(4-(1,4-diazabicyclo[3.2.2]nonan-4-ylsulfonyl)piperidin-1-yl)pyridin-3-yl)-2-amino-6-fluoropyrazolo[1,5-a]pyrimidine-3-carboxamide] was tested. Which “Cisplatin Sensitization Assay” value did it give?
The value was “+++ (Compounds with a Cisplatin sensitization value of <0.02 μM are marked with “+++.”)”.

Nc1nn2cc(F)cnc2c1C(=O)Nc1cnccc1N1CCN2C(=O)COCC2C1 (stereo not shown) [I-N-136, 2-amino-6-fluoro-N-(4-(4-oxohexahydropyrazino[2,1-c][1,4]oxazin-8(1H)-yl)pyridin-3-yl)pyrazolo[1,5-a]pyrimidine-3-carboxamide] was tested. Which “Cisplatin Sensitization Assay” value did it give?
Its value is “++ (Compounds with a Cisplatin sensitization value >0.02 μM but <0.2 μM are marked with “++.”)”.

How did the “Cisplatin Sensitization Assay” value turn out when Nc1nn2cc(F)cnc2c1C(=O)Nc1cncc(F)c1N1CCC(C(=O)N2CC[C@H](N3CCCC3)C2)CC1 [I-G-58, (S)—N-(4-(4-([1,3′-bipyrrolidine]-1′-carbonyl)piperidin-1-yl)-5-fluoropyridin-3-yl)-2-amino-6-fluoropyrazolo[1,5-a]pyrimidine-3-carboxamide] was run?
Its value is “+++ (Compounds with a Cisplatin sensitization value of <0.02 μM are marked with “+++.”)”.

Which “Cisplatin Sensitization Assay” value does the source give for Nc1nn2cc(F)cnc2c1C(=O)Nc1cnccc1N1CCC2(CC1)COC2 [I-N-226, N-(4-(2-oxa-7-azaspiro[3.5]nonan-7-yl)pyridin-3-yl)-2-amino-6-fluoropyrazolo[1,5-a]pyrimidine-3-carboxamide] here?
Its value is “+++ (Compounds with a Cisplatin sensitization value of <0.02 μM are marked with “+++.”)”.

Which “Cisplatin Sensitization Assay” value does the source give for Nc1nn2cc(F)cnc2c1C(=O)Nc1cnccc1N1CCC(C(=O)N2CC3(CCO3)C2)CC1 [I-G-90, N-(4-(4-(1-oxa-6-azaspiro[3.3]heptane-6-carbonyl)piperidin-1-yl)pyridin-3-yl)-2-amino-6-fluoropyrazolo[1,5-a]pyrimidine-3-carboxamide] here?
Its value is “+++ (Compounds with a Cisplatin sensitization value of <0.02 μM are marked with “+++.”)”.

Which “Cisplatin Sensitization Assay” value does the source give for CN1CC[C@@H](OC2CCN(c3c(F)cncc3NC(=O)c3c(N)nn4cc(F)cnc34)CC2)C1 [I-N-132, (R)-2-amino-6-fluoro-N-(5-fluoro-4-(4-((1-methylpyrrolidin-3-yl)oxy)piperidin-1-yl)pyridin-3-yl)pyrazolo[1,5-a]pyrimidine-3-carboxamide] here?
The value was “+++ (Compounds with a Cisplatin sensitization value of <0.02 μM are marked with “+++.”)”.

With Nc1nn2cc(F)cnc2c1C(=O)Nc1cnccc1CN1CCCC1=O [I-C-76, 2-amino-6-fluoro-N-(4-((2-oxopyrrolidin-1-yl)methyl)pyridin-3-yl)pyrazolo[1,5-a]pyrimidine-3-carboxamide] as the compound, how does the “Cisplatin Sensitization Assay” value read?
Its value is “+ (Compounds with a Cisplatin sensitization value >0.2 μM but <5 μM are marked with “+.”)”.

Cc1cccnc1-c1ccncc1NC(=O)c1c(N)nn2cc(F)cnc12 [I-C-36, 2-amino-6-fluoro-N-(3-methyl-[2,4′-bipyridin]-3′-yl)pyrazolo[1,5-a]pyrimidine-3-carboxamide] was tested. Which “Cisplatin Sensitization Assay” value did it give?
Its value is “+++ (Compounds with a Cisplatin sensitization value of <0.02 μM are marked with “+++.”)”.

How did the “Cisplatin Sensitization Assay” value turn out when CC(C)(C)Oc1ccncc1NC(=O)c1c(N)nn2cc(F)cnc12 [I-O-88, 2-amino-N-(4-(tert-butoxy)pyridin-3-yl)-6-fluoropyrazolo[1,5-a]pyrimidine-3-carboxamide] was run?
The value was “+++ (Compounds with a Cisplatin sensitization value of <0.02 μM are marked with “+++.”)”.

How did the “Cisplatin Sensitization Assay” value turn out when Nc1nn2cc(F)cnc2c1C(=O)Nc1cnccc1N1CCN(C2COC2)CC1 [I-N-1, 2-amino-6-fluoro-N-(4-(4-(oxetan-3-yl)piperazin-1-yl)pyridin-3-yl)pyrazolo[1,5-a]pyrimidine-3-carboxamide] was run?
Its value is “++ (Compounds with a Cisplatin sensitization value >0.02 μM but <0.2 μM are marked with “++.”)”.

Which “Cisplatin Sensitization Assay” value does the source give for CCOC1CN(C(=O)C2CCN(c3ccncc3NC(=O)c3c(N)nn4cc(F)cnc34)CC2)C1 [I-G-91, 2-amino-N-(4-(4-(3-ethoxyazetidine-1-carbonyl)piperidin-1-yl)pyridin-3-yl)-6-fluoropyrazolo[1,5-a]pyrimidine-3-carboxamide] here?
The value was “+++ (Compounds with a Cisplatin sensitization value of <0.02 μM are marked with “+++.”)”.

For Nc1nn2cc(Cl)cnc2c1C(=O)Nc1cnccc1O[C@@H]1CCCNC1 [I-O-81, (R)-2-amino-6-chloro-N-(4-(piperidin-3-yloxy)pyridin-3-yl)pyrazolo[1,5-a]pyrimidine-3-carboxamide], which “Cisplatin Sensitization Assay” value is on record?
Its value is “++ (Compounds with a Cisplatin sensitization value >0.02 μM but <0.2 μM are marked with “++.”)”.

Which “Cisplatin Sensitization Assay” value does the source give for CN(C)S(=O)(=O)C1CCN(c2c(F)cncc2NC(=O)c2c(N)nn3cc(F)cnc23)CC1 [I-N-146, 2-amino-N-(4-(4-(N,N-dimethylsulfamoyl)piperidin-1-yl)-5-fluoropyridin-3-yl)-6-fluoropyrazolo[1,5-a]pyrimidine-3-carboxamide] here?
The value was “+++ (Compounds with a Cisplatin sensitization value of <0.02 μM are marked with “+++.”)”.

Which “Cisplatin Sensitization Assay” value does the source give for CN1CCC(C(=O)N2CCC(c3ccncc3NC(=O)c3c(N)nn4cc(F)cnc34)CC2)CC1 [I-C-16, 2-amino-6-fluoro-N-(4-(1-(1-methylpiperidine-4-carbonyl)piperidin-4-yl)pyridin-3-yl)pyrazolo[1,5-a]pyrimidine-3-carboxamide] here?
The value was “+ (Compounds with a Cisplatin sensitization value >0.2 μM but <5 μM are marked with “+.”)”.

Source: patent US10787452B2 (Vertex Pharmaceuticals Incorporated, priority 2012, dated 2020)
